One data set relates to NMRI-Mäuse. The class given is in vivo. The note with it: i. p., without DAc-SP5. An excerpt: Der Einfluß von DAc-SP5 und immunsuppressiv wirkenden Verbindungen auf die Antigen-spezifische IgM-Antwort bei Mäusen wurde untersucht. Die erhaltenen Ergebnisse sind in den Fig.1 und 2 dargestellt.
DAc-SP5 rekonstituiert bereits durch wenige aufeinanderfolgende Applikationen die chemisch induzierts Suppression der humoralen Immunantwort.

For the next data set, the system named is männlichen Balb/c-Mäusen. The note with it: in vivo.
Data set [1] relates to T4-Antigenen auf der Oberfläche menschlicher Lymphocyten. The data set can be described thus: Increase of T4 antigens on the surface of human lymphocytes of SLE patients in vitro (monoclonal antibodies). The class given is cell-based, Mensch. An excerpt: (§1) N^ε-MAc-SP5 (Sequenz 32 bis 36 des Milzhormons Splenin) hat die gleichen bzw. ähnliche immunbiologische Wirkungen wie das Gesamtmolekül Splenin. […] Funktionstüchtige T-Helferlymphocyten stimulieren die Antikörperbildung. Zum Nachweis einer Erhöhung der Antikörper-Bildung durch N^ε-MAc-SP5 wurde ein relevantes tierexperimentelles Modell gewählt: AB/Bln.-Mäuse wurden mit Röntgenstrahlen subletal bestrahlt und danach mit bzw. ohne N^ε-MAc-SP5 therapiert. Gleichzeitig erfolgte die Immunisierung der Tiere mit Schafserythrocyten. Da subletal bestrahlte Tiere die Fähigkeit verlieren, quantitativ ausreichend Antikörper zu produzieren, ist eine vermehrte Bildung von Antikörpern gegen Schafserythrocyten bei den mit N^ε-MAc-SP5 behandelten Tieren ein Maß für die Regeneration des Immunsystems durch N^ε-MAc-SP5. Mit N^ε-MAc-SP5 behandelte Tiere konnten bereits nach 34 Tagen Antikörper in gleicher Menge wie unbestrahlte Kontrolltiere bilden. Im Vergleich dazu waren nicht mit N^ε-MAc-SP5 behandelte Tiere dazu erst 48 Tage nach der einmaligen Röntgenbestrahlung befähigt.
Funktionstüchtige (reife) T-Helferlymphocyten besitzen auf ihrer Oberfläche T4-Antigene, T-Suppressorlymphocyten T8-Antigene. Bei Patienten mit Systemischem Lupus Erythematodes (SLE) wurde mittels monoklonaler Antikörper ein verminderter Gehalt von T4-Antigenen auf der Lymphocytenoberfläche bestimmt. […]

The test system of data set [2] is Lymphocyten der SLE-Patienten. The data set can be described thus: 3H-thymidine incorporation of lymphocytes of SLE patients. The class given is cell-based, Mensch. The note with it: after contact with N^ε-MAc-SP5; n = 5; no significant deviation from no contact (t-test). An excerpt: T4-Antigene nehmen zu, wenn sich T4-Zellen vermehren bzw., wenn die Antigene vermehrt auf ihrer Oberfläche exprimiert werden. Die Untersuchungen ergaben, daß die Lymphocyten der SLE-Patienten nach Kontakt mit N^ε-MAc-SP5 keine erhöhten ³H-Thymidineinbauraten aufwiesen (910 ± 180 Impulse je Minute ohne N^ε-MAc-SP-5-Kontakt/820 ± 210 Impulse je Minute nach Kontakt mit N^ε-MAc-SP5; n = 5, keine signifikante Abweichung im t-Test). Es ist daher anzunehmen, daß die Zunahme der T4-Antigene nicht durch eine Vermehrung von T4-Zellen zustandekommt, sondern Folge einer strukturellen Veränderung der T-Zelloberfläche, möglicherweise identisch mit einem "Reifeprozeß" der Zelle, ist.
For orientation: Uptake of a labelled nucleoside into DNA is a usual measure of proliferation.

For a further data set, the system named is AB/Bln.-Mäuse. The data set can be described thus: Antibody formation against sheep erythrocytes (Jerne plaque test) after sublethal X-ray irradiation. The class given is in vivo. The settings on record: 600 c Gy; 10 or 50 µg i.p. every second day; untreated irradiated animals 48 days.
Text: as §1, with “befähigt. […]” for “befähigt.”

“Also recorded” adds a separate entry of the source. Read-outs that look alike come from different tables or passages of the source.

Take `C[C@@H]1C[C@H]2[C@@H]3CCC4=CC(=O)C=C[C@]4(C)[C@@]3(F)[C@@H](O)C[C@]2(C)[C@@]1(O)C(=O)CO` [Dexamethason]: the “Antigen-spezifischen IgM-Antwort” value with NMRI-Mäuse (0,2 mg/Tier or 0,08 mg/Tier) is recorded as “Reduktion”.

For the compound `CCO` [Ethanol], in the data set on männlichen Balb/c-Mäusen, the “% phagocytierende Peritonealzellen” value is listed as 29,0±1,7%, the “Milzmasse (mg)” value is reported as 60,0±3,2 mg, the Phagocytoseindex is on record as 3,0±0,08 and the “Plaque-bildende Zellen der Milz pro 10⁶ Zellen (Jerne-Plaquetest)” value is 61,3±3,8 pro 10⁶ Zellen. Further, the “Thymusmasse (mg)” value with männlichen Balb/c-Mäusen was 15,0±2,6 mg.

Turning to `O=P1(N(CCCl)CCCl)NCCCO1` (centres unmarked) [Cyclophosphamid], the “Antigen-spezifischen IgM-Antwort” value in the data set on NMRI-Mäuse (single dose 7,2 mg/Tier) is recorded as “nahezu vollständige Suppression”.

As to “Arginyl(N^ε-acetyl-lysyl)glutamylvalyl)tyrpsin [N^ε-MAc-SP5]”, in data set [1] (lymphocytes of SLE patients after contact with N^ε-MAc-SP5), the “TB-Antigene (Oberflächenantigene auf T-Suppressorlymphocyten bzw. cytotoxischen T-Lymphocyten)” value is “veränderten sich dagegen quantitativ nicht”. For the same compound, the “Anzahl von T4-Antigenen” value in data set [1] (lymphocytes of SLE patients before therapy, 2 h incubation with N^ε-MAc-SP5) is recorded as “quantitative Zunahme von T4-Antigenen; also recorded: permanent erhöhte Anzahl von T4-Antigenen”. The ³H-Thymidineinbauraten in data set [2] is reported as 820 ± 210 Impulse je Minute. Also, the “time after X-ray irradiation until Antikörper in gleicher Menge wie unbestrahlte Kontrolltiere” value in the data set with AB/Bln.-Mäuse was determined as 34 Tage.

(Values after patent EP0307553B1, “Modified splenopentines, their process of preparation and their use” (priority 1987, dated 1989).)
